Assays:
[1] = Selectivity ratio of Ki for Sachcharomyces cerevisiae beta carbonic anhydrase to Ki for human carbonic anhydrase-1
[2] = Inhibition of Sachcharomyces cerevisiae beta carbonic anhydrase after 15 mins by stopped-flow CO2 hydrase assay; set-up: species or system Saccharomyces cerevisiae
[3] = Selectivity ratio of Ki for Sachcharomyces cerevisiae beta carbonic anhydrase to Ki for human carbonic anhydrase-2
Saccharomyces cerevisiae = test: Antifungal activity against wild type Saccharomyces cerevisiae BY4742 assessed as growth inhibition after 48 hrs by microplate spectrophotometric analysis; type: functional; settings: BY4742, 48 h, read-out: CC50

Row | Structure (SMILES) | Ratio Ki [1] | Ki [2] | Ratio Ki [3] | Growth inhibition IC50 (Saccharomyces cerevisiae)
1 | N#C/C(=C\C=C\c1ccccc1)C(=O)Nc1ccc(S(N)(=O)=O)cc1 | 3.16 | 5.9 nM | 5.3 | –
2 | COc1ccccc1/C=C(\C#N)C(=O)Nc1ccc(S(N)(=O)=O)cc1 | 1.02 | 69.5 nM | 0.1 | –
3 | COc1ccc(/C=C(\C#N)C(=O)Nc2ccc(S(N)(=O)=O)cc2)cc1 | 43 | 0.92 nM | 9.78 | 1140 nM
4 | N#C/C(=C\c1ccc([N+](=O)[O-])cc1)C(=O)Nc1ccc(S(N)(=O)=O)cc1 | 2.15 | 18.6 nM | 0.29 | –
5 | N#C/C(=C\c1ccccc1Cl)C(=O)Nc1ccc(S(N)(=O)=O)cc1 | 4.91 | 8.4 nM | 7.26 | –
6 | COc1cc(OC)c(/C=C(\C#N)C(=O)Nc2ccc(S(N)(=O)=O)cc2)c(OC)c1 | 37.6 | 0.68 nM | 9.85 | 730 nM
7 | N#C/C(=C\c1ccc(O)cc1)C(=O)Nc1ccc(S(N)(=O)=O)cc1 | 23.6 | 2.5 nM | 13.5 | 6540 nM
8 | COc1cc(OC)c(OC)cc1/C=C(\C#N)C(=O)Nc1ccc(S(N)(=O)=O)cc1 | 4.93 | 8.6 nM | 4.44 | –
9 | CC(=O)C1=NN(c2ccccc2)/C(=C(\C#N)C(=O)Nc2ccc(S(N)(=O)=O)cc2)S1 | 2.02 | 57.3 nM | 0.13 | –
10 | N#C/C(=C\c1ccco1)C(=O)Nc1ccc(S(N)(=O)=O)cc1 | 0.8 | 7.6 nM | 0.72 | –
11 | COc1ccc(/C=C(\C#N)C(=O)Nc2ccc(S(N)(=O)=O)cc2)cc1OC | 4.34 | 7.2 nM | 2.58 | –
12 | N#CCC(=O)Nc1ccc(S(N)(=O)=O)cc1 | 6.25 | 8.7 nM | 0.7 | –
13 | N#C/C(=N\Nc1ccccc1)C(=O)Nc1ccc(S(N)(=O)=O)cc1 | 5.23 | 6.5 nM | 1.3 | –
14 | CC(=O)Nc1nnc(S(N)(=O)=O)s1 [ACETAZOLAMIDE] | 3.02 | 82.6 nM | 0.14 | –
15 | COc1cc(/C=C(\C#N)C(=O)Nc2ccc(S(N)(=O)=O)cc2)ccc1O | 5.87 | 5.6 nM | 1.07 | –
16 | N#C/C(=C\c1ccc(Cl)cc1Cl)C(=O)Nc1ccc(S(N)(=O)=O)cc1 | 5.17 | 9.1 nM | 3.61 | –
17 | N=c1oc2ccccc2cc1C(=O)Nc1ccc(S(N)(=O)=O)cc1 | 5.67 | 5.8 nM | 1.88 | –
18 | CN(C)c1ccc(/C=C(\C#N)C(=O)Nc2ccc(S(N)(=O)=O)cc2)cc1 | 15.8 | 3 nM | 6.46 | 6220 nM
19 | N#C/C(=C\c1ccc2c(c1)OCO2)C(=O)Nc1ccc(S(N)(=O)=O)cc1 | 3.29 | 7.5 nM | 1.9 | –
20 | N#C/C(C(=O)Nc1ccc(S(N)(=O)=O)cc1)=C(\S)Nc1ccccc1 | 1.47 | 45.8 nM | 0.14 | –
21 | COc1cc(/C=C(\C#N)C(=O)Nc2ccc(S(N)(=O)=O)cc2)cc(OC)c1OC | 5.17 | 7.1 nM | 1.05 | –
22 | N#C/C(=C\c1ccc(O)c(O)c1)C(=O)Nc1ccc(S(N)(=O)=O)cc1 | 69.9 | 0.75 nM | 5.6 | 890 nM
23 | N#C/C(=C\c1cccs1)C(=O)Nc1ccc(S(N)(=O)=O)cc1 | 1.6 | 3.3 nM | 0.81 | –
